Test results reported in publication PMC12471299, “Secondary Metabolites of the Marine Sponge-Derived Fungus Aspergillus subramanianii 1901NT-1.40.2 and Their Antimicrobial and Anticancer Activities” (Marine Drugs, 2025).
Values after ≈ are worked out from the molar mass of the structure shown.

Tests used:
Format in all cases: cell-based
Candida albicans KMM 455 [1] = assay: Antimicrobial assay, growth inhibition (optical density); details: Candida albicans, KMM455, 18 h, C. albicans, 18 h
Experimental: (§1) The Gram-positive bacterial Staphylococcus aureus ATCC 21027, Gram-negative bacterial Escherichia coli VKPM (B-7935), and yeast-like fungal Candida albicans KMM 455 strains were fermented on solid medium Mueller Hinton broth with agar (16.0 g/L) in a Petri dish at 37 °C for 24 h. The antimicrobial activity of the compound was tested at concentrations ranging from 100 µM and lower. The effect of the compound on bacterial growth was estimated as described by. Gentamicin and amphotericin B were used as positive controls against S. aureus, E. coli, and C. albicans, and a 1% dimethyl sulfoxide (DMSO) solution in PBS was used as a negative control. The optical density of the bacterial suspension after 18 h was measured at λ = 620 nm. The effect of the compound on biofilm formation for 18 h was tested using MTT reagent (Sigma-Aldrich, St. Louis, MO, USA) in accordance with. The optical density of the obtained solution was measured at λ = 570 nm. A Multiskan FS spectrophotometer (Thermo Scientific Inc., Beverly, MA, USA) was used for both assays. The results were calculated as percentages of the control data and presented as minimal concentrations reduced by 50% of growth or biofilm formation (MIC50).

Candida albicans KMM 455 [2] = assay: Biofilm formation assay (MTT); details: C. albicans, 18 h
Experimental: as §1

[3] = tested on: Escherichia coli VKPM (B-7935); assay: Antimicrobial assay, growth inhibition (optical density); details: Escherichia coli, 18 h, E. coli
Experimental: as §1

[4] = tested on: Staphylococcus aureus ATCC 21027; assay: as above; details: Staphylococcus aureus, ATCC21027, 18 h, S. aureus, 18 h
Experimental: as §1

[5] = tested on: Escherichia coli VKPM (B-7935); assay: Biofilm formation assay (MTT); details: E. coli, 18 h
Experimental: as §1

[6] = tested on: Staphylococcus aureus ATCC 21027; assay: Biofilm formation assay (MTT); details: S. aureus, 18 h
Experimental: as §1

MIC50 (Candida albicans KMM 455 [1]) | Biofilm formation, MIC50 (Candida albicans KMM 455 [2]) | MIC50 [3] | MIC50 [4] | Biofilm formation, MIC50 [5] | Biofilm formation, MIC50 [6] | SMILES
1.18 ± 0.15 µM (≈ 1.09 µg/mL) | 1.38 ± 0.14 µM | – | – | – | – | C[C@@H]1[C@H](O)[C@@H](C)/C=C/C=C/C=C/C=C/C=C/C=C/C=C/[C@H](O[C@@H]2O[C@H](C)[C@@H](O)[C@H](N)[C@@H]2O)C[C@@H]2O[C@](O)(C[C@@H](O)C[C@@H](O)[C@H](O)CC[C@@H](O)C[C@@H](O)CC(=O)O[C@H]1C)C[C@H](O)[C@H]2C(=O)O [Amphotericin B, reference compound]
– | – | 5.03 ± 0.77 µM (≈ 2.4 µg/mL) | 4.52 ± 0.98 µM (≈ 2.16 µg/mL) | 5.34 ± 0.50 µM | 4.34 ± 0.32 µM | CNC(C)C1CCC(N)C(OC2C(N)CC(N)C(OC3OCC(C)(O)C(NC)C3O)C2O)O1 (stereo not drawn) [Gentamycin, reference compound]
